Laboratory results published in patent publication US12023390B2, “Isomerically pure 18F-labelled tetrahydrofolates” (MERCK PATENT GMBH, priority 2017, dated 2024).
Values joined by “and” are separate entries in the source; they are usually repeats but may differ in a detail not shown here. Equal entries are not always repeated.

Columns and labels:
FR-alpha = FR-alpha (Homo sapiens, UniProt P15328); test: Selectivity for FR-alpha versus oxidized folic acid derivative (summary statement)
Folate Receptor = Folate Receptor (Homo sapiens, UniProt P15328); conditions: cited from earlier work
Sequence of Folate Receptor (P15328 25-234): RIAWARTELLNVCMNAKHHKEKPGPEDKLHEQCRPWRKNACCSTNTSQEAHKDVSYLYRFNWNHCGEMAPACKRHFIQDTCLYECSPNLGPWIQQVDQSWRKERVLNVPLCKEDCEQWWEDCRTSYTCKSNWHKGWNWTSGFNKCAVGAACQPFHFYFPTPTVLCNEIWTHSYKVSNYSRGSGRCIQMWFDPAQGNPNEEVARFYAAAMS

FR-positive KB cells = test: Cell uptake and internalization using FR-positive KB cells; assay type: cell-based
Description: (§1) In order to investigate FR-specific cell uptake and internalization, cell uptake and internalization of 6R-[^18F]1 and 6S-[^18F]1 were carried out using FR-positive KB cells. Cell uptake increased constantly over time for both diastereoisomers resulting in an uptake of about 60% (calculated per 0.3 mg of protein) of total added radioactivity after 3 h of incubation at 37° C. (FIG. 22).

KB tumor-bearing mice = test: Biodistribution studies in KB tumor-bearing mice
Description: Biodistribution studies were performed 2 weeks after cell inoculation. The ^18F-folate radiotracers (˜5 MBq/mouse) were injected in a volume of 100 μL into a lateral tail vein. The animals were sacrificed at 30 min, 60 min and 90 min after administration of radiotracers. Selected tissues and organs were collected, weighed, and radioactivity was measured using a γ-counter. The results were listed as a percentage of the injected radioactivity per gram of tissue mass (% IA/g), using counts of a defined volume of the original injection solution measured at the same time resulting in decay corrected values.

D4 (FR-β) = target: T1, D4 (FR-β) (Homo sapiens, UniProt P14207); test: Cell uptake and internalization in FR-β transfected CHO cells (D4); assay type: cell-based
T1 construct: expressed in transfected cells; host or cells: CHO cells (D4)
T1 sequence (P14207 17-230): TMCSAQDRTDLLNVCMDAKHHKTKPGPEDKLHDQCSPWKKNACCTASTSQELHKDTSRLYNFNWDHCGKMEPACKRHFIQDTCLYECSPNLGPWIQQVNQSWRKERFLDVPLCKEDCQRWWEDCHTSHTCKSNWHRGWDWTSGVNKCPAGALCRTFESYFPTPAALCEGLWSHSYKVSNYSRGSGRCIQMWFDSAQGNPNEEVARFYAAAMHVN
Description: (§2) The uptake and internalization of the oxidized (^18F-AzaFol) and reduced ^18F-folates (6S-isomer and 6R-isomer of ^18F-5-Me-Aza-THF) in D4 and RT16 cells which express the FR-α and FR-β, […] was studied. Both cell lines were kindly provided by Larry Matherly Wayne State University, Detroit, U.S.; Golani et al., J Med Chem, 2016, 59, 7856.
When using D4 cells that express the FR-β, the uptake of ^18F-AzaFol and the 6S-isomer of the reduced radiotracer reached approximately 70% after 1 h incubation and 80% after 3 h incubation. The internalized fraction of ^18F-AzaFol and the 6S-isomer of the reduced version was 20% and 12%, respectively, after 1 h incubation. These numbers increased slightly when the incubation time was extended to 3 h. […] No change was observed after additional two hours of incubation.

[1] = Metabolite studies / in vivo stability (radio-UPLC of blood plasma, liver, urine); design: species or system mice; conditions: samples taken p.i.
Description: as §1
The folate radiotracer 6S/6R-[^18F]5 (1:1 ratio, 53.7-52.3 MBq; 0.62-1.15 nmol) were intravenously injected into mice in order to determine the in vivo stability of the tracers. […] Ice-cold methanol containing 10 mg/mL 2-mercaptoethanol and 0.025% (v/v) ammonium hydroxide was added to the blood plasma, homogenized liver and urine in order to precipitate the proteins.^6 After centrifugation, the supernatants of the blood plasma, liver and urine samples were analyzed by radio-UPLC (FIG. 4).

[2] = Distribution coefficient (log D7.4), shake flask method; assay type: physicochemical; conditions: n-octanol / phosphate buffer pH 7.4, room temperature
Description: The samples were shaken for 15 min in an overhead shaker and centrifuged for 3 min at 5000 rpm to separate the two phases. Aliquots (50 μL) of both phases were added to Eppendorftubes and then, analyzed in a γ-counter (Wizard, PerkinElmer). The partition coefficient is expressed as the radio between the radioactivity concentrations (cpm/mL) of the n-octanol and the phosphate buffer phase. Values represent the mean±standard deviation of sextuples from two independent experiments.

RT16 (FR-α) = target: T2, RT16 (FR-α) (Homo sapiens, UniProt P15328); test: Cell uptake and internalization in FR-α transfected CHO cells (RT16); assay type: cell-based
T2 construct: expressed in transfected cells; host or cells: CHO cells (RT16)
T2 sequence (P15328 25-234): as the sequence (P15328 25-234) above
Description: as §2
The internalized fraction of the radiotracers reached 8-10% after 1 h and increased slightly up to 9-12% after 3 h incubation.

[3] = KB tumor-bearing mice, 30 min p.i.
[4] = KB tumor-bearing mice, 30 min p.i., ratio
[5] = KB tumor-bearing mice, 60 min p.i.
[6] = KB tumor-bearing mice, 60 min p.i. & Folic Acid (100 μg 10 min prior)
[7] = KB tumor-bearing mice, 60 min p.i., ratio
[8] = KB tumor-bearing mice, 90 min p.i.
[9] = KB tumor-bearing mice, 90 min p.i., ratio
[10] = KB tumor-bearing mice, 90 min p.i., listed as 6S-form
[11] = KB tumor-bearing mice, 90 min p.i., listed as 6S-isomer

Sequence of FR-alpha (P15328 25-234, species assumed): as the sequence (P15328 25-234) above

Compound: CN1c2c(nc(N)[nH]c2=O)NCC1CNc1ccc(C(=O)N[C@@H](CCC(=O)O)C(=O)O)c([18F])n1 (some centres unmarked) [3′-aza-2′-[^18]fluoro-5-methyltetrahydrofolate]
- fold higher selectivity for FR-alpha than the respective oxidized folic acid derivative (FR-alpha): 50 fold

Compound: Nc1nc2ncc(CNc3ccc(C(=O)N[C@H](CCC(=O)NC[C@H](N)C(=O)N[C@@H](CC(=O)O)C(=O)N[C@@H](CS)C(=O)O)C(=O)O)cc3)nc2c(=O)[nH]1 [EC20]
- Kd (Folate Receptor): 12 nM

Compound: 6S-3′-aza-2′-[^18F]fluoro-5-MTHF [6S-[^18F]1]
- internalized activity (FR-positive KB cells; 37° C.): ~16%
- cell uptake (% of total added radioactivity) (FR-positive KB cells; 3 h incubation at 37° C., calculated per 0.3 mg of protein): about 60%
- Biodistribution: Blood (KB tumor-bearing mice; [3]): 1.52 ± 0.31 % IA/g
- Biodistribution: Bone (KB tumor-bearing mice; [3]): 1.70 ± 0.13 % IA/g
- Biodistribution: Feaces (KB tumor-bearing mice; [3]): 3.71 ± 2.34 % IA/g
- Biodistribution: Gall Bladder (KB tumor-bearing mice; [3]): 20.0 ± 9.00 % IA/g
- Biodistribution: Heart (KB tumor-bearing mice; [3]): 2.02 ± 0.22 % IA/g
- Biodistribution: Intestines (KB tumor-bearing mice; [3]): 2.61 ± 0.65 % IA/g
- Biodistribution: KB Tumor (KB tumor-bearing mice; [3]): 11.13±0.90 % IA/g and 11.1 ± 0.90 % IA/g
- Biodistribution: Kidneys (KB tumor-bearing mice; [3]): 42.5 ± 2.73 % IA/g
- Biodistribution: Liver (KB tumor-bearing mice; [3]): 8.10 ± 1.16 % IA/g
- Biodistribution: Lung (KB tumor-bearing mice; [3]): 2.31 ± 0.42 % IA/g
- Biodistribution: Muscle (KB tumor-bearing mice; [3]): 1.36 ± 0.25 % IA/g
- Biodistribution: Salivary glands (KB tumor-bearing mice; [3]): 13.8 ± 2.06 % IA/g
- Biodistribution: Spleen (KB tumor-bearing mice; [3]): 1.90 ± 0.34 % IA/g
- Biodistribution: Stomach (KB tumor-bearing mice; [3]): 2.54 ± 0.56 % IA/g
- Tu-to-blood (KB tumor-bearing mice; [4]): 7.41 ± 0.96
- Tu-to-liver (KB tumor-bearing mice; [4]): 1.38 ± 0.16
- Biodistribution: Kidneys (KB tumor-bearing mice; KB tumor-bearing mice, 30 min p.i., listed as 6S-form): 42.5±2.73 % IA/g
- Biodistribution: Liver (KB tumor-bearing mice; KB tumor-bearing mice, 30 min p.i., listed as 6S-tracer): 8.10±1.16 % IA/g
- Biodistribution: Blood (KB tumor-bearing mice; [5]): 1.26 ± 0.08 % IA/g
- Biodistribution: Bone (KB tumor-bearing mice; [5]): 1.38 ± 0.14 % IA/g
- Biodistribution: Feaces (KB tumor-bearing mice; [5]): 4.85 ± 1.95 % IA/g
- Biodistribution: Gall Bladder (KB tumor-bearing mice; [5]): 16.6 ± 8.91 % IA/g
- Biodistribution: Heart (KB tumor-bearing mice; [5]): 1.53 ± 0.15 % IA/g
- Biodistribution: Intestines (KB tumor-bearing mice; [5]): 2.58 ± 0.42 % IA/g
- Biodistribution: KB Tumor (KB tumor-bearing mice; [5]): 14.2 ± 1.91 % IA/g
- Biodistribution: Kidneys (KB tumor-bearing mice; [5]): 37.5 ± 3.61 % IA/g
- Biodistribution: Liver (KB tumor-bearing mice; [5]): 6.28 ± 0.66 % IA/g
- Biodistribution: Lung (KB tumor-bearing mice; [5]): 2.04 ± 0.09 % IA/g
- Biodistribution: Muscle (KB tumor-bearing mice; [5]): 1.29 ± 0.14 % IA/g
- Biodistribution: Salivary glands (KB tumor-bearing mice; [5]): 13.8 ± 1.28 % IA/g
- Biodistribution: Spleen (KB tumor-bearing mice; [5]): 1.57 ± 0.16 % IA/g
- Biodistribution: Stomach (KB tumor-bearing mice; [5]): 1.84 ± 0.33 % IA/g
- Biodistribution: Blood (KB tumor-bearing mice; [6]): 1.09 ± 0.28 % IA/g
- Biodistribution: Bone (KB tumor-bearing mice; [6]): 0.49 ± 0.12 % IA/g
- Biodistribution: Feaces (KB tumor-bearing mice; [6]): 8.42 ± 2.10 % IA/g
- Biodistribution: Gall Bladder (KB tumor-bearing mice; [6]): 5.87 ± 0.45 % IA/g
- Biodistribution: Heart (KB tumor-bearing mice; [6]): 0.50 ± 0.13 % IA/g
- Biodistribution: Intestines (KB tumor-bearing mice; [6]): 4.34 ± 0.93 % IA/g
- Biodistribution: KB Tumor (KB tumor-bearing mice; [6]): 2.11 ± 0.38 % IA/g
- Biodistribution: Kidneys (KB tumor-bearing mice; [6]): 2.28 ± 0.95 % IA/g
- Biodistribution: Liver (KB tumor-bearing mice; [6]): 4.76 ± 0.87 % IA/g
- Biodistribution: Lung (KB tumor-bearing mice; [6]): 0.84 ± 0.20 % IA/g
- Biodistribution: Muscle (KB tumor-bearing mice; [6]): 0.26 ± 0.06 % IA/g
- Biodistribution: Salivary glands (KB tumor-bearing mice; [6]): 0.89 ± 0.26 % IA/g
- Biodistribution: Spleen (KB tumor-bearing mice; [6]): 0.90 ± 0.24 % IA/g
- Biodistribution: Stomach (KB tumor-bearing mice; [6]): 0.73 ± 0.32 % IA/g
- Tu-to-blood (KB tumor-bearing mice; [7]): 11.3 ± 1.13
- Tu-to-kidney (KB tumor-bearing mice; [7]): 0.38 ± 0.04
- Tu-to-liver (KB tumor-bearing mice; [7]): 1.87 ± 0.96
- Biodistribution: Blood (KB tumor-bearing mice; [8]): 1.16 ± 0.20 % IA/g
- Biodistribution: Bone (KB tumor-bearing mice; [8]): 1.49 ± 0.30 % IA/g
- Biodistribution: Feaces (KB tumor-bearing mice; [8]): 4.57 ± 1.98 % IA/g
- Biodistribution: Gall Bladder (KB tumor-bearing mice; [8]): 11.4 ± 7.18 % IA/g
- Biodistribution: Heart (KB tumor-bearing mice; [8]): 1.48 ± 0.17 % IA/g
- Biodistribution: Intestines (KB tumor-bearing mice; [8]): 2.34 ± 0.39 % IA/g
- Biodistribution: KB Tumor (KB tumor-bearing mice; [8]): 19.2 ± 4.16 % IA/g
- Biodistribution: Kidneys (KB tumor-bearing mice; [8]): 42.3 ± 7.05 % IA/g
- Biodistribution: Liver (KB tumor-bearing mice; [8]): 5.86 ± 1.11 % IA/g
- Biodistribution: Lung (KB tumor-bearing mice; [8]): 2.08 ± 0.35 % IA/g
- Biodistribution: Muscle (KB tumor-bearing mice; [8]): 1.24 ± 0.14 % IA/g
- Biodistribution: Salivary glands (KB tumor-bearing mice; [8]): 21.4 ± 4.59 % IA/g
- Biodistribution: Spleen (KB tumor-bearing mice; [8]): 1.82 ± 0.49 % IA/g
- Biodistribution: Stomach (KB tumor-bearing mice; [8]): 1.69 ± 0.33 % IA/g
- Tu-to-blood (KB tumor-bearing mice; [9]): 16.5 ± 0.59
- Tu-to-liver (KB tumor-bearing mice; [9]): 3.30 ± 0.59
- Biodistribution: Kidneys (KB tumor-bearing mice; [10]): 42.3±7.05 % IA/g
- Biodistribution: Liver (KB tumor-bearing mice; [10]): 5.86±1.11 % IA/g
- Biodistribution: Salivary glands (KB tumor-bearing mice; [10]): 21.4±4.59 % IA/g
- Biodistribution: KB Tumor (KB tumor-bearing mice; [11]): 19.2±4.16 % IA/g
- Biodistribution: Spleen (KB tumor-bearing mice; [11]): 1.82±0.49 % IA/g
- Biodistribution: Liver (KB tumor-bearing mice; KB tumor-bearing mice, 90 min p.i., listed as S-isomer): 5.86±1.11 % IA/g
- Specificity of tumor binding (KB tumor-bearing mice; blocking by pre-injection of folic acid): 89%
- factor of increase of tumor-to-kidney ratio (KB tumor-bearing mice; from 30 min p.i. to 90 min p.i.): 1.7
- uptake into D4 cells (in words) (D4 (FR-β); D4 (FR-β) cells): significant uptake
- internalized fraction (D4 (FR-β); D4 cells, 1 h incubation): 12%
- uptake (D4 (FR-β); D4 cells, 1 h incubation): approximately 70%
- uptake (D4 (FR-β); D4 cells, 3 h incubation): ~80%
- in vivo stability [1]: Only intact parent compounds were found
- logD7.4 [2]: −4.6 ± 0.1
- PET/CT: KB tumor xenograft uptake (KB tumor xenografts; already 1 h p.i.): High KB tumor xenograft uptake
- PET/CT: blocking studies, uptake in all FR-positive tissues (KB tumor xenografts; folic acid injected 10 minutes prior to radiotracer): remarkably reduced uptake
- uptake into RT16 cells (in words) (RT16 (FR-α)): significant uptake
